Data taken from patent US9266878B2, “Phosphatidylinositol 3-kinase inhibitors” (Gilead Calistoga LLC, priority 2012, dated 2016).

Columns and labels:
Assay in all cases: Enzymatic activity of PI3K isoforms, TR-FRET assay (PIP3 formation)
Assay type in all cases: biochemical
[1] = molecular target: PI3Kβ (Homo sapiens (Human), UniProt P42338)
In short: (§1)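 IC50 (nM) reflects inhibition of PIP3 formation by purified recombinant heterodimeric PI3K, measured as loss of TR-FRET signal. The read-out comes from competition between enzyme-made PIP3 and labelled PIP3 for binding to the GRP-1 pleckstrin homology domain.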

[2] = molecular target: PI3Kγ (Homo sapiens (Human), UniProt P48736)
PI3Kγ, sequence (P48736 whole entry): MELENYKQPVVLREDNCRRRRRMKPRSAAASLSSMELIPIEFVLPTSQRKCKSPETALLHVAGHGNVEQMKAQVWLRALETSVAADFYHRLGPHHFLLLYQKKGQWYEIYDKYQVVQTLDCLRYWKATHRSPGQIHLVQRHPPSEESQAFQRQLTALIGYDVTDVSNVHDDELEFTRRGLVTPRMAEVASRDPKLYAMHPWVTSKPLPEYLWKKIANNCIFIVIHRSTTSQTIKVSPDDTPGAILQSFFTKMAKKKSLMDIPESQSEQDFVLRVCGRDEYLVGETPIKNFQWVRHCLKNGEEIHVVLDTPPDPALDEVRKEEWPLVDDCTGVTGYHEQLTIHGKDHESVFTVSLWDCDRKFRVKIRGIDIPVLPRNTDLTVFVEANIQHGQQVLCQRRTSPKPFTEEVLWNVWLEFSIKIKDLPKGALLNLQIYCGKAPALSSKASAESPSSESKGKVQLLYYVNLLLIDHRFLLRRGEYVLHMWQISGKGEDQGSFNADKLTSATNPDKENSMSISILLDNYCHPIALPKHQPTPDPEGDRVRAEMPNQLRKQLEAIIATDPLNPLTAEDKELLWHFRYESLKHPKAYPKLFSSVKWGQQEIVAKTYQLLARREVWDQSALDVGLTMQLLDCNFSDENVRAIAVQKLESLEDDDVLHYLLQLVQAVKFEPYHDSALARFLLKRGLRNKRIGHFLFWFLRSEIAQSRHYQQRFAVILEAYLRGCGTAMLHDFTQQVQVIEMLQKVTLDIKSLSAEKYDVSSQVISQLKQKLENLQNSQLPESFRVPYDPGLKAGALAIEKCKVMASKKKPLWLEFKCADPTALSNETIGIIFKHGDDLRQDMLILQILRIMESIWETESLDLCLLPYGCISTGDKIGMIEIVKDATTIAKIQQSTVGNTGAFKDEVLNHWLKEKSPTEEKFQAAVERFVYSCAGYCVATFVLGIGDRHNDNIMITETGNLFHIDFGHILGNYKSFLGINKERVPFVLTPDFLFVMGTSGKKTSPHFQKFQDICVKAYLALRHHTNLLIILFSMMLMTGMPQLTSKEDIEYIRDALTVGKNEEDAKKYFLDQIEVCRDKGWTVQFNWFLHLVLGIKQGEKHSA
PI3Kγ, sequence (Q8WYR1 whole entry partner): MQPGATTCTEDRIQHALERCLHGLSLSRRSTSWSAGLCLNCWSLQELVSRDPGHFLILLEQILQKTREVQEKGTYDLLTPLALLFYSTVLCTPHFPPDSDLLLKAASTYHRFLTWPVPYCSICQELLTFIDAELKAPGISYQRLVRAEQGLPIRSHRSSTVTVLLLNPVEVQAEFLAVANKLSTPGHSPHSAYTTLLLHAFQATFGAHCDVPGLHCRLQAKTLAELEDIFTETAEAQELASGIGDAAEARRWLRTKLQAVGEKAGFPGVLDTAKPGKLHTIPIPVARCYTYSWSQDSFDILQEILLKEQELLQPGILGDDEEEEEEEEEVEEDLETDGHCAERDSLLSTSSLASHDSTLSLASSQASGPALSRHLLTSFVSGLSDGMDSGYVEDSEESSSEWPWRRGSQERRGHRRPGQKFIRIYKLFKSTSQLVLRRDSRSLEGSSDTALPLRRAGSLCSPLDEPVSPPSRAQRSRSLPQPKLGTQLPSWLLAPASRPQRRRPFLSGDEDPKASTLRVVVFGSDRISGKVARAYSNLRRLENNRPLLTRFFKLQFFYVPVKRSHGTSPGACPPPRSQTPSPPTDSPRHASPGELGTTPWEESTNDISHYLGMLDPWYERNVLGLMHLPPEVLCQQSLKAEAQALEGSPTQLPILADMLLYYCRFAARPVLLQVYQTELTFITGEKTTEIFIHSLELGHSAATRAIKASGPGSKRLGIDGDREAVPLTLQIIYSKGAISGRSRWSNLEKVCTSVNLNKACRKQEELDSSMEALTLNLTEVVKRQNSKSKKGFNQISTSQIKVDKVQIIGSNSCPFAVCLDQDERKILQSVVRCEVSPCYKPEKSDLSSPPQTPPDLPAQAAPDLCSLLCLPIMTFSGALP
In short: as §1

[3] = molecular target: PI3Kδ (Homo sapiens (Human), UniProt O00329)
PI3Kδ, sequence (O00329 whole entry): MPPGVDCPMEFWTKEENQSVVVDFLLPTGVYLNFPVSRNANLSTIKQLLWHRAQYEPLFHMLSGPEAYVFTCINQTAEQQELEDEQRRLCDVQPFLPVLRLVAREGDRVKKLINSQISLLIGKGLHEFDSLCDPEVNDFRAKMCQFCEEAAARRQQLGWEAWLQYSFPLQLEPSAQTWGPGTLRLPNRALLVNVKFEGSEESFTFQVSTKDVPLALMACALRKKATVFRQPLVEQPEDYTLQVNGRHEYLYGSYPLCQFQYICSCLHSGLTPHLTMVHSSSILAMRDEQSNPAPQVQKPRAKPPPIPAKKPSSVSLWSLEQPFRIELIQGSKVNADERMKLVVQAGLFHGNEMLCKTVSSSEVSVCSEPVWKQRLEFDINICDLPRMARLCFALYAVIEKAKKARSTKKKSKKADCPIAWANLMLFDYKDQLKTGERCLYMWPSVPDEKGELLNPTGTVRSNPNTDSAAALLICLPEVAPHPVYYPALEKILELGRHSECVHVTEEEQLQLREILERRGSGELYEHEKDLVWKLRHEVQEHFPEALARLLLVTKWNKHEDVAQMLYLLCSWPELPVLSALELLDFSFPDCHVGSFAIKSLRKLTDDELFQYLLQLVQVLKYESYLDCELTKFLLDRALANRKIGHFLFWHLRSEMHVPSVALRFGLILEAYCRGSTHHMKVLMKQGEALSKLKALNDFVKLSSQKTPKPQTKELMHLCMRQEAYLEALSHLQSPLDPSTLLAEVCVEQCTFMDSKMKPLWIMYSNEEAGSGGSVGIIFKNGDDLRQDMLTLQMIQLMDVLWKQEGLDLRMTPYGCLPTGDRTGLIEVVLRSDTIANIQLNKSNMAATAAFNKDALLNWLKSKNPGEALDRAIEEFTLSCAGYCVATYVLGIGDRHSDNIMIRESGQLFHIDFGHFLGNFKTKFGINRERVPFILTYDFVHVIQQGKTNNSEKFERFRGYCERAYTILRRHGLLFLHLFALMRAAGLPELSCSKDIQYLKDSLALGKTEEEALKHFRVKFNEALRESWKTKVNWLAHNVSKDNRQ
PI3Kδ, sequence (P27986 whole entry partner): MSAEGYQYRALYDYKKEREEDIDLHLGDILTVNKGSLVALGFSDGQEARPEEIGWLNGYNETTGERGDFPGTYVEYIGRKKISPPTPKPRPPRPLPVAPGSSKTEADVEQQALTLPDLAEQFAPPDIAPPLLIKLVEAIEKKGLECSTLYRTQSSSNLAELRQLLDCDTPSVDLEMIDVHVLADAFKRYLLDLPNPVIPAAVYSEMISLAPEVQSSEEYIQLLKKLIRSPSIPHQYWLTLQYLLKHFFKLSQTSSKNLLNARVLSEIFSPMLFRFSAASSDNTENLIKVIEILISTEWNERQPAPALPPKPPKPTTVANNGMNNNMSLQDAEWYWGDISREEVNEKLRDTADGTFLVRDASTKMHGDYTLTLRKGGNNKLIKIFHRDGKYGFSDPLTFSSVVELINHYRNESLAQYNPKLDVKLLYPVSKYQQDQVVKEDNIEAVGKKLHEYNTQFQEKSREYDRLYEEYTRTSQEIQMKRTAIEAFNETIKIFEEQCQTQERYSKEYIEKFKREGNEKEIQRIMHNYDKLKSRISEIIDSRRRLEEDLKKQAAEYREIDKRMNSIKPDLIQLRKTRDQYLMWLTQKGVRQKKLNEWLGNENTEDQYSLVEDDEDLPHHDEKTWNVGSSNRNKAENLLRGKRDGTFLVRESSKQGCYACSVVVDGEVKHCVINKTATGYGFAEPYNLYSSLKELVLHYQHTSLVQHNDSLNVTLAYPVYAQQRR
In short: (§2)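 After 30 min at 25° C, reactions were quenched with 10 mM EDTA plus 10 nM labeled-PIP3 and 35 nM Europium-GRP-1, and TR-FRET was read (Ex 340, Em 615/665 nm). Enzymes were purified recombinant heterodimers; product PIP3 competes off the labeled tracer. Values given as IC50, nM.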

[4] = molecular target: PI3Kα (Homo sapiens (Human), UniProt P42336)
In short: as §2

PI3Kβ, sequence (P42338 whole entry, the tested form may be a part): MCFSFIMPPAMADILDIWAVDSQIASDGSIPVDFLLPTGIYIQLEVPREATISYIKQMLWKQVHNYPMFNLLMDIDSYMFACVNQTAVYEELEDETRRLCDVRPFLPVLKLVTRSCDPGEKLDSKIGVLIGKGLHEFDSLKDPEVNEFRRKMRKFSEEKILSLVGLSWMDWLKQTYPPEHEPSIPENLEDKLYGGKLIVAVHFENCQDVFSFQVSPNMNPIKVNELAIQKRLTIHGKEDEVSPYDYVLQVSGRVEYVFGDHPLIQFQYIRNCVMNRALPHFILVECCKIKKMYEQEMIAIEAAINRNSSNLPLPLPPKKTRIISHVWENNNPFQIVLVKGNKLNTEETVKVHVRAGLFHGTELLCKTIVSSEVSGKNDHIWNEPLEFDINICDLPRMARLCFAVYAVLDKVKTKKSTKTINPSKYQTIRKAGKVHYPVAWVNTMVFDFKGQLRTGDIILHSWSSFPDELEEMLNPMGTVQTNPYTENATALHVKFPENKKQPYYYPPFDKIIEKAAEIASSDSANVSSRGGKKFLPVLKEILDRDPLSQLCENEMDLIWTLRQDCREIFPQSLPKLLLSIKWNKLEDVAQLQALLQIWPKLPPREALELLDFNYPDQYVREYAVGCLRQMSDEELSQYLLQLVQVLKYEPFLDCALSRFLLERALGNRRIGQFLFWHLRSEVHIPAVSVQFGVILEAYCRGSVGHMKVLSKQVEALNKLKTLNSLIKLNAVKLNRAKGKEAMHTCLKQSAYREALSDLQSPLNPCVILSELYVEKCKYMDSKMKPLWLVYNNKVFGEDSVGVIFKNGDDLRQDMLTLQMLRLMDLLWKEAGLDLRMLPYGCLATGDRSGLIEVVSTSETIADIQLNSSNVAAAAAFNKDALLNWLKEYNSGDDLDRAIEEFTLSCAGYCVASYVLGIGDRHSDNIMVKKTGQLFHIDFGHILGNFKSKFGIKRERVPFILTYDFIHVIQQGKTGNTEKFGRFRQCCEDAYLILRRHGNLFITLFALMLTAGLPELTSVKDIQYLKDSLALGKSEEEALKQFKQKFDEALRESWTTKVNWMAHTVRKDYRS
PI3Kβ, sequence (P27986 whole entry partner, the tested form may be a part): as the sequence (P27986 whole entry partner) above

SMILES | IC50 ([1]; bound given in nM) [nM] | IC50 ([2]; bound given in nM) [nM] | IC50 ([3]; bound given in nM) [nM] | IC50 ([4]; bound given in nM) [nM] | IC50 ([1]; bound given in uM) [nM] | IC50 ([2]; bound given in uM) [nM] | IC50 ([4]; bound given in uM) [nM] | IC50 ([3]; bound given in uM) [nM]
C[C@H](Nc1ncnc(N)c1C#Cc1ccc(N)cn1)c1nc2cccc(Cl)c2c(=O)n1-c1ccccc1 [Compound 35a, (S)-2-(1-(6-amino-5-((5-aminopyridin-2-yl)ethynyl)pyrimidin-4-ylamino)ethyl)-5-chloro-3-phenylquinazolin-4(3H)-one] | < 100 | < 100 | < 100 | < 100 |  |  |  | 
C[C@H](Nc1ncnc(N)c1C#CC(C)(C)O)c1nc2cccc(Cl)c2c(=O)n1-c1cc(F)cc(F)c1 [Compound 28a, (S)-2-(1-(6-amino-5-(3-hydroxy-3-methylbut-1-ynyl)pyrimidin-4-ylamino)ethyl)-5-chloro-3-(3,5-difluorophenyl)quinazolin-4(3H)-one] |  |  | < 100 |  | > 1000 | > 1000 | > 1000 | 
Cc1cccc2nc([C@H](C)Nc3ncnc(N)c3C#Cc3ccc(F)cn3)n(-c3cccc(CN(C)S(C)(=O)=O)c3)c(=O)c12 [Compound 128a, (S)—N-(3-(2-(1-((6-amino-5-((5-fluoropyridin-2-yl)ethynyl)pyrimidin-4-yl)amino)ethyl)-5-methyl-4-oxoquinazolin-3(4H)-yl)benzyl)-N-methylmethanesulfonamide] |  |  | < 100 |  | > 1000 | > 1000 | > 1000 | 
C[C@H](Nc1ncnc(N)c1C#Cc1cnccn1)c1nc2cccc(Cl)c2c(=O)n1N1CCCCCC1 [Compound 126a, (S)-2-(1-((6-amino-5-(pyrazin-2-ylethynyl)pyrimidin-4-yl)amino)ethyl)-3-(azepan-1-yl)-5-chloroquinazolin-4(3H)-one] |  |  | < 100 |  | > 1000 | > 1000 | > 1000 | 
C[C@H](Nc1ncnc(N)c1C#Cc1ccc(F)cn1)c1nc2cccc(Cl)c2c(=O)n1-c1cccc(CN(C)S(C)(=O)=O)c1 [Compound 129a, (S)—N-(3-(2-(1-((6-amino-5-((5-fluoropyridin-2-yl)ethynyl)pyrimidin-4-yl)amino)ethyl)-5-chloro-4-oxoquinazolin-3(4H)-yl)benzyl)-N-methylmethanesulfonamide] |  |  | < 100 |  | > 1000 | > 1000 | > 1000 | 
CC(C)CS(=O)(=O)NCc1cccc(-n2c([C@H](C)Nc3ncnc(N)c3C#Cc3ccc(F)cn3)nc3cccc(Cl)c3c2=O)c1 [Compound 131a, (S)—N-(3-(2-(1-((6-amino-5-((5-fluoropyridin-2-yl)ethynyl)pyrimidin-4-yl)amino)ethyl)-5-chloro-4-oxoquinazolin-3(4H)-yl)benzyl)-2-methylpropane-1-sulfonamide] |  |  | < 100 |  | > 1000 | > 1000 | > 1000 | 
C[C@H](Nc1ncnc(N)c1C#Cc1ncccc1CO)c1nc2cccc(Cl)c2c(=O)n1-c1ccccc1 [Compound 163a, (S)-2-(1-((6-amino-5-((3-(hydroxymethyl)pyridin-2-yl)ethynyl)pyrimidin-4-yl)amino)ethyl)-5-chloro-3-phenylquinazolin-4(3H)-one] |  |  |  |  | > 1000 | > 1000 | > 1000 | > 1000
C[C@H](Nc1ncnc(N)c1C#Cc1ccc(F)cn1)c1nc2cccc(O)c2c(=O)n1-c1ccccc1 [Compound 52a, (S)-2-(1-((6-amino-5-((5-fluoropyridin-2-yl)ethynyl)pyrimidin-4-yl)amino)ethyl)-5-hydroxy-3-phenylquinazolin-4(3H)-one] |  |  | < 100 |  | > 1000 | > 1000 | > 1000 | 
CC[C@H](Nc1ncnc(N)c1C#Cc1cnccn1)c1nc2cccc(F)c2c(=O)n1-c1cc(F)cc(F)c1 [Compound 107a, (S)-2-(1-((6-amino-5-(pyrazin-2-ylethynyl)pyrimidin-4-yl)amino)propyl)-3-(3,5-difluorophenyl)-5-fluoroquinazolin-4(3H)-one] |  |  | < 100 |  | > 1000 | > 1000 | > 1000 | 
C[C@H](Nc1ncnc(N)c1C#Cc1cnccn1)c1nc2cccc(Cl)c2c(=O)n1-c1cc(F)cc(F)c1 [Compound 85a, (S)-2-(1-((6-amino-5-(pyrazin-2-ylethynyl)pyrimidin-4-yl)amino)ethyl)-5-chloro-3-(3,5-difluorophenyl)quinazolin-4(3H)-one] |  |  | < 100 |  | > 1000 | > 1000 | > 1000 | 
Cc1ccc(F)c2nc([C@H](C)Nc3ncnc(N)c3C#Cc3ccc(F)cn3)n(-c3cccc(C#N)c3)c(=O)c12 [Compound 72a, (S)-3-(2-(1-((6-amino-5-((5-fluoropyridin-2-yl)ethynyl)pyrimidin-4-yl)amino)ethyl)-8-fluoro-5-methyl-4-oxoquinazolin-3(4H)-yl)benzonitrile] |  |  | < 100 |  | > 1000 | > 1000 | > 1000 | 
C[C@H](Nc1ncnc(N)c1C#Cc1cnccn1)c1nc2cccc(C(F)F)c2c(=O)n1-c1cccc(C#N)c1 [Compound 71a, (S)-3-(2-(1-((6-amino-5-(pyrazin-2-ylethynyl)pyrimidin-4-yl)amino)ethyl)-5-(difluoromethyl)-4-oxoquinazolin-3(4H)-yl)benzonitrile] |  |  | < 100 |  | > 1000 | > 1000 | > 1000 | 
C[C@H](Nc1ncnc(N)c1C#Cc1ccc(F)cn1)c1nc2cccc(Cl)c2c(=O)n1-c1cccc(CNS(C)(=O)=O)c1 [Compound 130a, (S)—N-(3-(2-(1-((6-amino-5-((5-fluoropyridin-2-yl)ethynyl)pyrimidin-4-yl)amino)ethyl)-5-chloro-4-oxoquinazolin-3(4H)-yl)benzyl)methanesulfonamide] |  |  | < 100 |  | > 1000 | > 1000 | > 1000 | 
C[C@H](Nc1ncnc(N)c1C#Cc1ccc(C(=O)O)cn1)c1nc2cccc(Cl)c2c(=O)n1-c1ccccc1 [Compound 138a, (S)-6-((4-amino-6-((1-(5-chloro-4-oxo-3-phenyl-3,4-dihydroquinazolin-2-yl)ethyl)amino)pyrimidin-5-yl)ethynyl)nicotinic acid] |  |  | < 100 |  | > 1000 | > 1000 | > 1000 | 
Cc1ccc(Cl)c2c(=O)n(-c3ccccc3)c([C@H](C)Nc3ncnc(N)c3C#Cc3ccc(F)cn3)nc12 [Compound 53a, (S)-2-(1-((6-amino-5-((5-fluoropyridin-2-yl)ethynyl)pyrimidin-4-yl)amino)ethyl)-5-chloro-8-methyl-3-phenylquinazolin-4(3H)-one] |  |  | < 100 |  | > 1000 | > 1000 | > 1000 | 
C[C@H](Nc1ncnc(N)c1C#Cc1cccc(CN)n1)c1nc2cccc(Cl)c2c(=O)n1-c1ccccc1 [Compound 159a, (S)-2-(1-((6-amino-5-((6-(aminomethyl)pyridin-2-yl)ethynyl)pyrimidin-4-yl)amino)ethyl)-5-chloro-3-phenylquinazolin-4(3H)-one] |  |  | < 100 |  | > 1000 | > 1000 | > 1000 | 
Cc1cccc2nc([C@H](C)Nc3ncnc(N)c3C#Cc3ncccn3)n(-c3cc(F)cc(F)c3)c(=O)c12 [Compound 105a, (S)-2-(1-((6-amino-5-(pyrimidin-2-ylethynyl)pyrimidin-4-yl)amino)ethyl)-3-(3,5-difluorophenyl)-5-methylquinazolin-4(3H)-one] |  |  | < 100 |  | > 1000 | > 1000 | > 1000 | 
C[C@H](Nc1ncnc(N)c1C#Cc1cnccn1)c1nc2cccc(C#N)c2c(=O)n1-c1ccccc1 [Compound 55a, (S)-2-(1-((6-amino-5-(pyrazin-2-ylethynyl)pyrimidin-4-yl)amino)ethyl)-4-oxo-3-phenyl-3,4-dihydroquinazoline-5-carbonitrile] |  |  | < 100 |  | > 1000 | > 1000 | > 1000 | 
C[C@H](Nc1ncnc(N)c1C#Cc1ccc(F)cn1)c1nc2cccc(F)c2c(=O)n1-c1cccc(F)c1 [Compound 99a, (S)-2-(1-((6-amino-5-((5-fluoropyridin-2-yl)ethynyl)pyrimidin-4-yl)amino)ethyl)-5-fluoro-3-(3-fluorophenyl)quinazolin-4(3H)-one] |  |  | < 100 |  | > 1000 | > 1000 | > 1000 | 
C[C@H](Nc1ncnc(N)c1C#Cc1ncccn1)c1nc2cccc(Cl)c2c(=O)n1-c1cc(F)cc(F)c1 [Compound 103a, (S)-2-(1-((6-amino-5-(pyrimidin-2-ylethynyl)pyrimidin-4-yl)amino)ethyl)-5-chloro-3-(3,5-difluorophenyl)quinazolin-4(3H)-one] |  |  | < 100 |  | > 1000 | > 1000 | > 1000 | 
C[C@H](Nc1ncnc(N)c1C#Cc1ncccn1)c1nc2cccc(Cl)c2c(=O)n1-c1cccnc1 [Compound 117a, (S)-2-(1-((6-amino-5-(pyrimidin-2-ylethynyl)pyrimidin-4-yl)amino)ethyl)-5-chloro-3-(pyridin-3-yl)quinazolin-4(3H)-one] |  |  | < 100 |  | > 1000 | > 1000 | > 1000 | 
C[C@H](Nc1ncnc(N)c1C#Cc1cnccn1)c1nc2cccc(C(F)F)c2c(=O)n1-c1cc(F)cc(F)c1 [Compound 66a, (S)-2-(1-((6-amino-5-(pyrazin-2-ylethynyl)pyrimidin-4-yl)amino)ethyl)-5-(difluoromethyl)-3-(3,5-difluorophenyl)quinazolin-4(3H)-one] |  |  | < 100 |  | > 1000 | > 1000 | > 1000 | 
